The results in this text go back to PubChem BioAssay (NCI).

Among the test systems are NCI-H226 lung; SK-MEL-5 melanoma; HL-60(TB) leukemia; UACC-257 melanoma; HOP-92 NSCLC; TK-10 renal; NCI-H23 lung; A549 NSCLC; ACHN renal.
Experiment in all cases: DTP human tumour cell line panel, 48 h

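Compound exposure: 48 hours, 5 concentrations, 96-well plates. GI50 marks 50% less growth. TGI is the concentration that stops growth completely.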 Some results are limits rather than exact numbers.

Broadly, the TGI is the concentration at which net growth stops. A higher TGI goes with lower sensitivity of the cells. For orientation: GI50 means the concentration giving 50% growth inhibition.

In the case of `N#CC(/C(=N/NC(N)=S)C(=O)Nc1cccc(Cl)c1)c1ccccc1` (centres undefined), the TGI with NCI-H226 lung, in the experiment with SK-MEL-5 melanoma, with HL-60(TB) leukemia, with UACC-257 melanoma, with HOP-92 NSCLC and in the experiment on TK-10 renal was more than 100 µM in each case. Besides, the TGI in the experiment on NCI-H23 lung, in the experiment on A549 NSCLC and in the experiment on ACHN renal was more than 100 µM in each case.
Regarding `N#Cc1c2ccccc2c2nnc3ccccc3n12`, the GI50 was more than 100 µM with HL-60(TB) leukemia; more than 100 µM in the experiment on HOP-92 NSCLC; 31.7 µM in the experiment with TK-10 renal; 13.5 µM in the experiment with A549 NSCLC; 19.3 µM in the experiment with ACHN renal. In addition, the TGI was more than 100 µM in the experiment on HL-60(TB) leukemia; more than 100 µM with HOP-92 NSCLC; more than 100 µM in the experiment with TK-10 renal; 36.7 µM in the experiment on A549 NSCLC; 61.2 µM with ACHN renal.
With `NC1=NC2=C(CCCC2)C(c2cccs2)S1` (centres undefined), the TGI with SK-MEL-5 melanoma, in the experiment on HL-60(TB) leukemia, with UACC-257 melanoma, with HOP-92 NSCLC, with TK-10 renal and with NCI-H23 lung was more than 100 µM each time. Moreover, the TGI in the experiment with A549 NSCLC and with ACHN renal was more than 100 µM throughout.
For the compound `Cc1ccc(NC(=O)/C(=N\NC(N)=S)C(C#N)c2ccccc2C)cc1C` (centres undefined), the total growth inhibition concentration (TGI) in the experiment on NCI-H226 lung, with SK-MEL-5 melanoma, in the experiment on HL-60(TB) leukemia, in the experiment on UACC-257 melanoma, in the experiment with HOP-92 NSCLC and in the experiment on TK-10 renal was more than 100 µM each time. In addition, the TGI in the experiment on NCI-H23 lung, with A549 NSCLC and in the experiment with ACHN renal was more than 100 µM each time.
Turning to `C=C(COC(C)=O)CC(/C=C(\C)CC/C=C(\C)CO)OC(C)=O` (centres undefined), the total growth inhibition concentration (TGI) with NCI-H226 lung, with SK-MEL-5 melanoma, in the experiment on HL-60(TB) leukemia, with HOP-92 NSCLC, in the experiment with TK-10 renal and in the experiment on NCI-H23 lung was more than 100 µM each time. In addition, the total growth inhibition concentration (TGI) in the experiment on A549 NSCLC and with ACHN renal was more than 100 µM in each case.
With `CCCCN(CCCC)CC(C(=O)Nc1ccc([N+](=O)[O-])cc1[N+](=O)[O-])/C(C)=N\NC(=O)C[N+](C)(C)C` (centres undefined), the TGI with NCI-H226 lung, in the experiment with SK-MEL-5 melanoma, in the experiment on HL-60(TB) leukemia, in the experiment on UACC-257 melanoma, in the experiment on HOP-92 NSCLC and in the experiment on TK-10 renal was more than 100 µM each time. In addition, the total growth inhibition concentration (TGI) with NCI-H23 lung, in the experiment with A549 NSCLC and with ACHN renal was more than 100 µM each time.
Regarding `CCc1cccc(CC)c1NC(=O)CC1SC(N)=NC1=O` (centres undefined), the TGI with NCI-H226 lung, in the experiment on SK-MEL-5 melanoma, in the experiment on HL-60(TB) leukemia, in the experiment on UACC-257 melanoma, with HOP-92 NSCLC and in the experiment with TK-10 renal was more than 100 µM in each case. Also, the TGI in the experiment with NCI-H23 lung, with A549 NSCLC and with ACHN renal was more than 100 µM each time.
Turning to `CC1=NC=C(O)c2ccccc2O1`, the TGI with HL-60(TB) leukemia, in the experiment with UACC-257 melanoma, in the experiment on HOP-92 NSCLC, in the experiment on TK-10 renal, in the experiment on NCI-H23 lung and in the experiment on A549 NSCLC was more than 100 µM each time. Also, the TGI with ACHN renal is more than 100 µM.
Regarding `COc1cc(C2C(C(=O)O)=C(COC(C)=O)Oc3cc4c(cc32)OCO4)cc(OC)c1OC(C)=O` (centres undefined), the total growth inhibition concentration (TGI) with SK-MEL-5 melanoma, in the experiment with HL-60(TB) leukemia, with UACC-257 melanoma, in the experiment on HOP-92 NSCLC, in the experiment on TK-10 renal and in the experiment with NCI-H23 lung was more than 100 µM in each case. The TGI in the experiment with A549 NSCLC and in the experiment on ACHN renal was more than 100 µM throughout.
For `CC(=O)OCC1OC([Se-])C(OC(C)=O)C(OC(C)=O)C1OC(C)=O.N#CCC[PH+](CCC#N)CCC#N.[Au+]` (centres undefined), the GI50 is 3.73 µM in the experiment with NCI-H226 lung; 3.43 µM in the experiment with SK-MEL-5 melanoma; 1.87 µM with HL-60(TB) leukemia; 5.93 µM in the experiment on UACC-257 melanoma; 12.1 µM with HOP-92 NSCLC; 14.2 µM in the experiment on TK-10 renal. The GI50 with NCI-H23 lung is 4.55 µM; in the experiment on A549 NSCLC it was 9.09 µM; with ACHN renal, 7.06 µM. The TGI with NCI-H226 lung amounted to 16.3 µM; in the experiment with SK-MEL-5 melanoma it was 15.9 µM; in the experiment with HL-60(TB) leukemia, 4.31 µM; in the experiment with UACC-257 melanoma, 13.6 µM; in the experiment with HOP-92 NSCLC, 52.2 µM; with TK-10 renal, 46.9 µM. For the same compound, the concentration for total growth inhibition (TGI) with NCI-H23 lung is 23.1 µM; with A549 NSCLC, 42.4 µM; in the experiment on ACHN renal, 39.4 µM.
On to `Cc1ccc(C(=O)N2CCCCC2)cc1N=NN(C)C`, for which the TGI in the experiment on NCI-H226 lung, in the experiment with SK-MEL-5 melanoma, in the experiment on HL-60(TB) leukemia, with UACC-257 melanoma, with TK-10 renal and in the experiment on NCI-H23 lung was more than 100 µM in each case. Besides, the TGI in the experiment with A549 NSCLC and in the experiment with ACHN renal was more than 100 µM each time.
In the case of `O=c1nc(N2CCCC2)nc(N2CCCC2)s1`, the concentration for total growth inhibition (TGI) with NCI-H226 lung, with SK-MEL-5 melanoma, with HL-60(TB) leukemia, in the experiment with UACC-257 melanoma, in the experiment on HOP-92 NSCLC and with TK-10 renal was more than 100 µM throughout. Moreover, the TGI with NCI-H23 lung, in the experiment with A549 NSCLC and in the experiment with ACHN renal was more than 100 µM throughout.
Take `CC(=O)Oc1ccc(Nn2c3ccccc3c3ccccc32)c(C)c1`: the TGI in the experiment with SK-MEL-5 melanoma was more than 100 µM; in the experiment with HL-60(TB) leukemia, 63.2 µM; in the experiment on UACC-257 melanoma, more than 100 µM; with HOP-92 NSCLC, 64 µM; with TK-10 renal, more than 100 µM; in the experiment with NCI-H23 lung it was more than 100 µM. The TGI in the experiment with A549 NSCLC is more than 100 µM.
As to `Cn1c2cc([N+](=O)[O-])ccc2c(=O)c2c(O)cc3c(c21)C=CC(C)(C)O3`, the total growth inhibition concentration (TGI) in the experiment on SK-MEL-5 melanoma was more than 100 µM; with HL-60(TB) leukemia, more than 100 µM; in the experiment with UACC-257 melanoma, more than 100 µM; with TK-10 renal, 89.1 µM; in the experiment on NCI-H23 lung it was more than 100 µM; in the experiment on A549 NSCLC, more than 100 µM. The compound also registered a concentration for total growth inhibition (TGI) with ACHN renal of more than 100 µM.
On to `C=C1C(=O)c2cc3c(cc2C(c2cc(OC)c(OC)c(OC)c2)[C@@H]1C(=O)O)OCO3` (some centres undefined), for which the TGI in the experiment with NCI-H226 lung was more than 100 µM; with SK-MEL-5 melanoma, more than 100 µM; in the experiment with UACC-257 melanoma it was more than 100 µM; with HOP-92 NSCLC, 75.4 µM; in the experiment with TK-10 renal, more than 100 µM; in the experiment with NCI-H23 lung, more than 100 µM. In addition, the total growth inhibition concentration (TGI) in the experiment on A549 NSCLC and with ACHN renal was more than 100 µM each time.
